IC50 data for seven molecules are collected here from US20260200921A1, “SUBSTITUTED AMINOPYRIDINE COMPOUNDS AS AKT INHIBITORS” (Atavistik Bio, Inc., priority 2023, published 2026).

A value given as a limit tells only on which side of the number the result lay.

One assay addresses T1, AKT1 E17K (Homo sapiens, UniProt P31749, E17K).
T1 construct: Purified human recombinant kinase full-length AKT1 E17K was expressed in insect cells; made in house; host or cells: insect cells
Briefly: AKT1 E17K kinase assay (TR-FRET, Lance). The note with it: full-length human recombinant AKT1 E17K activated by PDPK1; Ulight-CREBtide substrate; either 50 μM ATP or 2 mM ATP. Type of assay: biochemical. The protocol: AKT1 E17K kinase assay: Inhibitory effects of compounds on AKT1 E17K were undertaken in a 10-pt dose response kinase activity assay measuring phospho-peptide product formation based on TR-FRET signal as described in the following paragraph.
(§1) Purified human recombinant kinase full-length AKT1 E17K was expressed in insect cells and activated in vitro by PDPK1. Ulight™-CREBtide (PerkinElmer, catalog number TRF0107) was used as the peptide substrate. The reaction buffer consisted of 50 mM HEPES pH 7.5, 10 mM MgCl2, 0.01% Triton X-100, 0.01% BSA, 2 mM DTT, 0.6 nM AKT1 E17K, 50 nM Ulight™-CREBtide and either 50 μM ATP or 2 mM ATP. The compound solution was prepared as 10 mM DMSO stock. For the assay, a 1:3 serial dilution 10-pt dose response of test compounds, in duplicate, for each concentration were dispensed into a 384-well plate (Corning, catalog number 4513). Final DMSO concentration in the assay was 1%. The enzyme mixture (5 μL, 1.2 nM) were added and the mixture was incubated for 15 min at RT prior to the start of the kinase reaction by the addition of 5 μL substrate mixture (100 nM Ulight™-CREBtide). The reaction was stopped after 60 min of incubation at RT by the addition of 10 μL of Detection Mix (PerkinElmer, #CR97-100) consisting of Europium-anti-phospho-CREB (Ser133) (Perkin Elmer, catalog numberTRF0200). Incubation with the detection mix for a further 60 min allowed binding of antibody to the phospho-Ulight™ CREBtide. The fluorescence emissions at 620 nm and 665 nm after excitation at 350 nm was measured using Envision reader. The ratio of the emissions at 665 nm and at 620 nm provided the measure for the amount of phosphorylated CREBtide product of AKT1 E17K kinase activity. To determine the IC50 values, the data was normalized (enzyme reaction without inhibitor=0% inhibition, all other assay components but no enzyme=100% inhibition) and IC50 values were calculated by a 4-parameter fit using an in-house developed protocol.
Background: In TR-FRET formats the signal depends on donor and acceptor labels being close together.

For another assay, the target named is T2, wildtype AKT1 (Homo sapiens, UniProt P31749).
T2 construct: Purified human recombinant kinase full-length wildtype AKT1 was expressed in insect cells; made in house; host or cells: insect cells
T2 sequence (P31749 whole entry): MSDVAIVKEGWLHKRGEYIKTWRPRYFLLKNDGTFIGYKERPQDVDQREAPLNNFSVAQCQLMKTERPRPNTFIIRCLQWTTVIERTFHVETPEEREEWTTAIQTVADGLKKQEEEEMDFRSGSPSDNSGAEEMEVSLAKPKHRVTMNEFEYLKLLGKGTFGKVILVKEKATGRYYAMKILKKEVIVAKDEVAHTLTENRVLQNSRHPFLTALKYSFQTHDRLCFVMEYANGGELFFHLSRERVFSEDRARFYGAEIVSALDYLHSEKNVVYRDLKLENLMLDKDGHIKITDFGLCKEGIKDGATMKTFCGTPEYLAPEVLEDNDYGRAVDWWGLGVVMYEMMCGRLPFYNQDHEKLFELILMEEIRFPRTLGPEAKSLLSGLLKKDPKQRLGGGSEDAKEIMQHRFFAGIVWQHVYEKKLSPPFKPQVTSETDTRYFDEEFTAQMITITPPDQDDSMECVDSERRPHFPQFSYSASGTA
Kind of assay: AKT1 kinase assay, wildtype (TR-FRET, Lance). The note with it: full-length human recombinant wildtype AKT1 activated by PDPK1; Ulight-CREBtide substrate; either 50 μM ATP or 2 mM ATP. The format is biochemical. The protocol:
AKT1 kinase assay: Inhibitory effects of compounds on wildtype AKT1 were undertaken in a 10-pt dose response kinase activity assay measuring phospho-peptide product formation based on TR-FRET signal as described in the following paragraph.
as §1, with “full-length wildtype” for “full-length”, “AKT1” for “AKT1 E17K”, “nM AKT1,” for “nM AKT1 E17K,”, “Mix (PerkinElmer.” for “Mix (PerkinElmer,”

T1 sequence (P31749 whole entry E17K): as the sequence (P31749 whole entry) above, with E17K counted along it

As a reminder, the IC50 is the concentration needed to halve the response being measured. Take `Cc1nc(NC(=O)c2ccc(-c3nsc(=O)[nH]3)cc2)ccc1-n1c(-c2cccnc2N)nc2ccc(-c3ccccc3)nc21` [Compound I-42, N-(5-(2-(2-aminopyridin-3-yl)-5-phenyl-3H-imidazo[4,5-b]pyridin-3-yl)-6-methylpyridin-2-yl)-4-(5-oxo-4,5-dihydro-1,2,4-thiadiazol-3-yl)benzamide]: the IC50 at AKT1 E17K is 0.05 to 0.2 µM; on wildtype AKT1 it was below 0.5 µM.
Turning to `Nc1ncccc1-c1nc2ccc(-c3ccccc3)nc2n1-c1ccc(C2CN(C[C@H]3CC[C@H](c4nsc(=O)[nH]4)CC3)C2)cc1` [Compound I-43, 3-((1r,4r)-4-((3-(4-(2-(2-aminopyridin-3-yl)-5-phenyl-3H-imidazo[4,5-b]pyridin-3-yl)phenyl)azetidin-1-yl)methyl)cyclohexyl)-1,2,4-thiadiazol-5(4H)-one], the IC50 on AKT1 E17K is at least 0.5 µM; on wildtype AKT1, below 0.5 µM.
On to `Nc1ncccc1-c1nc2ccc(-c3ccccc3)nc2n1-c1ccc(C2CN(C[C@H]3CC[C@@H](c4nsc(=O)[nH]4)CC3)C2)cc1` [Compound I-44, 3-((1s,4s)-4-((3-(4-(2-(2-aminopyridin-3-yl)-5-phenyl-3H-imidazo[4,5-b]pyridin-3-yl)phenyl)azetidin-1-yl)methyl)cyclohexyl)-1,2,4-thiadiazol-5(4H)-one], for which the values for the IC50 on AKT1 E17K and at wildtype AKT1 were at least 0.5 µM and below 0.5 µM, respectively.
With `Nc1ncccc1-c1nc2ccc(-c3ccccc3)nc2n1-c1ccc(C2CCN(C[C@H]3CC[C@H](c4nsc(=O)[nH]4)CC3)CC2)cc1` [Compound I-45, 3-((1r,4r)-4-((4-(4-(2-(2-aminopyridin-3-yl)-5-phenyl-3H-imidazo[4,5-b]pyridin-3-yl)phenyl)piperidin-1-yl)methyl)cyclohexyl)-1,2,4-thiadiazol-5(4H)-one], the values for the IC50 at AKT1 E17K and on wildtype AKT1 were at least 0.5 µM and below 0.5 µM, respectively.
The matching figures for `Nc1ncccc1-c1nc2ccc(-c3ccccc3)nc2n1-c1ccc(C2CCN(C[C@H]3CC[C@@H](c4nsc(=O)[nH]4)CC3)CC2)cc1` [Compound I-46, 3-((1s,4s)-4-((4-(4-(2-(2-aminopyridin-3-yl)-5-phenyl-3H-imidazo[4,5-b]pyridin-3-yl)phenyl)piperidin-1-yl)methyl)cyclohexyl)-1,2,4-thiadiazol-5(4H)-one]: at least 0.5 µM and below 0.5 µM.
In the case of `CN(Cc1ccc(-n2c(-c3cccnc3N)nc3ccc(-c4ccccc4)nc32)cc1)[C@H]1CC[C@H](c2nsc(=O)[nH]2)CC1` [Compound I-47, 3-((1r,4r)-4-((4-(2-(2-aminopyridin-3-yl)-5-phenyl-3H-imidazo[4,5-b]pyridin-3-yl)benzyl)(methyl)amino)cyclohexyl)-1,2,4-thiadiazol-5(4H)-one], the IC50 at AKT1 E17K was at least 0.5 µM; on wildtype AKT1, below 0.5 µM.
Turning to `CN(Cc1ccc(-n2c(-c3cccnc3N)nc3ccc(-c4ccccc4)nc32)cc1)[C@H]1CC[C@@H](c2nsc(=O)[nH]2)CC1` [Compound I-48, 3-((1s,4s)-4-((4-(2-(2-aminopyridin-3-yl)-5-phenyl-3H-imidazo[4,5-b]pyridin-3-yl)benzyl)(methyl)amino)cyclohexyl)-1,2,4-thiadiazol-5(4H)-one], the 50% inhibitory concentration (IC50) on AKT1 E17K was 0.05 to 0.2 µM; at wildtype AKT1, below 0.5 µM.
